Reference: patent publication US7498292B2, “Combinatorial libraries of autoinducer analogs, autoinducer agonists and antagonists, and methods of use thereof” (The Research Foundation of State University of New York, priority 2002, dated 2009)

Tests used:
[1] = biological target: T1, LasR (Pseudomonas aeruginosa, UniProt P25084); assay: lasI-gfp reporter antagonist (competition against AI1) assay, PAO-JP2 (plasI-LVAgfp); format: cell-based, P. aeruginosa; conditions: 100-fold excess concentration over AI1 (1 μM AI1)
T1 construct: endogenous in cells; host or cells: P. aeruginosa PAO-JP2 (lasI, rhlI) harboring plasI-LVAgfp
Procedure: P. aeruginosa strain PAO-JP2 (lasI, rhlI) (Rahme et al., Science 268:1899-1902 (1995), which is hereby incorporated by reference in its entirety) harboring plasI-LVAgfp (Pearson et al., Proc. Natl Acad. Sci. USA 91:197-201 (1994), which is hereby incorporated by reference in its entirety) was grown at 37° C. in LB with 300 μg/ml carbenicillin. For agonist assays, an overnight culture was diluted to an OD600 of 0.1 and transferred to wells of a 96-well plate on which test compounds had previously been added and dried. The final concentration of each analog tested was roughly 400 μM, although this is an overestimate due to purity issues. Cells were then incubated for 6 hours at 37° C. with vigorous shaking. GFP expression was detected with a Molecular Imager (BioRad) (488 nm excitation and 695 nm bandpass filter) and quantified with ImageQuant software. The OD600 of cultures was determined to normalize GFP expression to cell density.
The methods were the same as described in Example 2 (GFP Reporter Assay), except that 1 μM AI1 was added to each well in combination with the library compound. The fluorescence/OD600 of each compound competing against AI1 was reported relative to the fluorescence/OD600 of the positive control of AI1 alone, which was set to 1. When strain PAO-JP2 (prhlI-LVAgfp) was used, the positive control was 1 μM AI1 and 10 μM AI2. Eight compounds that inhibited reporter gene expression by greater than 50% were identified (see, e.g., FIG. 6).
Reporter strains were grown overnight in LB plus 300 μg/ml carbenicillin at 37° C. and diluted to an OD600 of 0.1. Following an incubation of 1 hour, 200 μl of cell culture was added to individual wells of a 96 well plate containing appropriate amount of test compound(s). Plates were incubated for 6 hours and then scanned for fluorescence emission with a Molecular Imager (488 nm excitation and 695 nm bandpass filter). Fluorescence was quantified with ImageQuant software.

[2] = system: PAO1 (pTdK-GFP) biofilm; assay: static biofilm assay, PAO1 (pTdK-GFP); format: cell-based, P. aeruginosa
Procedure: Compound 3 was tested for its effect on biofilm development in a 24-hour assay that looks at the early stages of biofilm formation. […] Cultures were grown at 37° C. with shaking for 30 minutes, and then allowed to sit at 37° C. for an additional 23.5 hours. Coverslips were then rinsed and placed on slides for visualization using an MRC1024 Laser Scanning Microscope (BioRad) with a Nikon Fluor-60X oil emersion objective lens (NA=1.4), 488 nm Argon Laser and OG515 filter.
The same assay was run with strain PAO-1 (pTdK-GFP), and no exogenous autoinducers were added. […] The above results provide additional evidence that compound 3 interferes with QS signaling and reduces the production of important virulence factors.

[3] = system: P. aeruginosa; assay: cell growth in the reporter assay; format: cell-based; conditions: concentrations up to 400 μM
Procedure: Based on the above hypothesis, a competition assay of 2 and 3 against AI1, using strain PAO-JP2 (plasI-LVAgfp), was performed. […] It should be noted that this inhibition experiment was performed with competition against 1 μM AI1, a concentration typically produced by wild type P. aeruginosa (Pearson et al., Proc. Natl Acad. Sci. USA 92:1490-1494 (1995), which is hereby incorporated by reference in its entirety). […] It should also be noted that cell growth was not affected by the addition of 2 or 3 at concentrations up to 400 μM. Thus, it appears that compounds 2 and 3 act as specific inhibitors of QS controlled promoters. Compound 6 was also tested for its ability to compete against AI2, but no inhibition of the rhlI-gfp reporter gene was seen.

T1 sequence (P25084 whole entry): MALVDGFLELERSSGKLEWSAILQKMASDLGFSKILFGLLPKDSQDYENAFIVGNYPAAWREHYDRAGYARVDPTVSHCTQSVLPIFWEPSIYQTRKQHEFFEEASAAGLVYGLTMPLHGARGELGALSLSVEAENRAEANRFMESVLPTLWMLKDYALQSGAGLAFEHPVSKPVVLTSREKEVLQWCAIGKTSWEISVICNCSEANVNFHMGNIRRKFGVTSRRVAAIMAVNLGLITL

SMILES: CCCCCCCCCC(=O)CC(=O)NC1CCCCC1=O (racemic) [Compound 3, N-(2-oxocyclohexyl)-3-oxododecanamide]
- inhibition of GFP expression (lasI-gfp) [1]: 35%
- effect on biofilm morphology ([2]; wild type PAO1): noticeable difference in biofilm morphology
- effect on biofilm formation ([2]; wild type PAO1, no exogenous autoinducers): less obvious
- effect on cell growth [3]: not affected
